Experiment: xn = mol fraction of the nth substance listed
Conditions: 293.15 K, Fluid (supercritical or subcritical phases), Vibrating tube method, x1 = 0.97

O=C=O [carbon dioxide] + CO
Conditions | mass density [kg/m3]
8600 kPa | 847.4
8625 kPa | 847.69
8650 kPa | 848.04
8675 kPa | 848.37
8700 kPa | 848.68
8725 kPa | 849.03
8750 kPa | 849.37
8775 kPa | 849.67
8800 kPa | 849.99
8825 kPa | 850.29
8850 kPa | 850.6
8875 kPa | 850.92
8900 kPa | 851.22
8925 kPa | 851.5
8950 kPa | 851.81
8975 kPa | 852.08
9000 kPa | 852.41
9025 kPa | 852.71
9050 kPa | 852.98
9075 kPa | 853.28
9100 kPa | 853.57
9125 kPa | 853.85
9150 kPa | 854.08
9175 kPa | 854.24
9200 kPa | 854.32
9225 kPa | 854.58
9250 kPa | 854.9
9275 kPa | 855.22
9300 kPa | 855.55
9325 kPa | 855.89
9350 kPa | 856.22
9375 kPa | 856.46
9400 kPa | 856.82
9425 kPa | 857.09
9450 kPa | 857.44
9475 kPa | 857.69
9500 kPa | 858.02
9525 kPa | 858.28
9550 kPa | 858.59
9575 kPa | 858.84
9600 kPa | 859.17
9625 kPa | 859.48
9650 kPa | 859.74
9675 kPa | 860.01
9700 kPa | 860.28
9725 kPa | 860.54
9750 kPa | 860.76
9775 kPa | 860.99
9800 kPa | 861.24
9825 kPa | 861.54
9850 kPa | 861.78
9875 kPa | 862
9900 kPa | 862.27
9925 kPa | 862.54
9950 kPa | 862.76
9975 kPa | 863.01
10000 kPa | 863.3
10025 kPa | 863.5
10050 kPa | 863.76
10075 kPa | 864
10100 kPa | 864.22
10125 kPa | 864.49
10150 kPa | 864.74
10175 kPa | 865.06
10200 kPa | 865.34
10225 kPa | 865.63
10250 kPa | 865.87
10275 kPa | 866.12
10300 kPa | 866.45
10325 kPa | 866.67
10350 kPa | 866.94
10375 kPa | 867.18
10400 kPa | 867.43
10425 kPa | 867.68
10450 kPa | 867.99
10475 kPa | 868.24
10500 kPa | 868.43
10525 kPa | 868.74
10550 kPa | 868.99
10575 kPa | 869.23
10600 kPa | 869.48
10625 kPa | 869.76
10650 kPa | 869.97
10675 kPa | 870.3
10700 kPa | 870.54
10725 kPa | 870.79
10750 kPa | 871.03
10775 kPa | 871.28
10800 kPa | 871.52
10825 kPa | 871.77
10850 kPa | 872.01
10875 kPa | 872.27
10900 kPa | 872.51
10925 kPa | 872.75
10950 kPa | 873
10975 kPa | 873.24
11000 kPa | 873.49
11025 kPa | 873.73
11050 kPa | 873.98
11075 kPa | 874.22
11100 kPa | 874.47
11125 kPa | 874.72
11150 kPa | 874.96
11175 kPa | 875.21
11200 kPa | 875.45
11225 kPa | 875.7
11250 kPa | 875.94
11275 kPa | 876.2
11300 kPa | 876.43
11325 kPa | 876.68
11350 kPa | 876.93
11375 kPa | 877.16
11400 kPa | 877.38
11425 kPa | 877.58
11450 kPa | 877.85
11475 kPa | 878.07
11500 kPa | 878.33
11525 kPa | 878.56
11550 kPa | 878.81
11575 kPa | 879
11600 kPa | 879.3
11625 kPa | 879.46
11650 kPa | 879.71
11675 kPa | 879.95
11700 kPa | 880.2
11725 kPa | 880.38
11750 kPa | 880.63
11775 kPa | 880.86
11800 kPa | 881.1
11825 kPa | 881.34
11850 kPa | 881.54
11875 kPa | 881.77
11900 kPa | 882
11925 kPa | 882.25
11950 kPa | 882.46
11975 kPa | 882.66
12000 kPa | 882.9
12025 kPa | 883.12
12050 kPa | 883.38
12075 kPa | 883.57
12100 kPa | 883.79
12125 kPa | 884.05
12150 kPa | 884.26
12175 kPa | 884.46
12200 kPa | 884.7
12225 kPa | 884.95
12250 kPa | 885.18
12275 kPa | 885.36
12300 kPa | 885.6
12325 kPa | 885.85
12350 kPa | 886.09
12375 kPa | 886.26
12400 kPa | 886.49
12425 kPa | 886.67
12450 kPa | 886.91
12475 kPa | 887.16
12500 kPa | 887.33
12525 kPa | 887.57
12550 kPa | 887.8
12575 kPa | 887.98
12600 kPa | 888.22
12625 kPa | 888.41
12650 kPa | 888.63
12675 kPa | 888.88
12700 kPa | 889.11
12725 kPa | 889.29
12750 kPa | 889.53
12775 kPa | 889.77
12800 kPa | 889.94
12825 kPa | 890.19
12850 kPa | 890.37
12875 kPa | 890.6
12900 kPa | 890.84
12925 kPa | 891.01
12950 kPa | 891.25
12975 kPa | 891.46
13000 kPa | 891.66
13025 kPa | 891.9
13050 kPa | 892.08
13075 kPa | 892.32
13100 kPa | 892.5
13125 kPa | 892.74
13150 kPa | 892.96
13175 kPa | 893.13
13200 kPa | 893.3
13225 kPa | 893.53
13250 kPa | 893.74
13275 kPa | 893.95
13300 kPa | 894.19
13325 kPa | 894.36
13350 kPa | 894.53
13375 kPa | 894.75
13400 kPa | 894.97
13425 kPa | 895.18
13450 kPa | 895.34
13475 kPa | 895.52
13500 kPa | 895.75
13525 kPa | 895.96
13550 kPa | 896.13
13575 kPa | 896.33
13600 kPa | 896.51
13625 kPa | 896.67
13650 kPa | 896.86
13675 kPa | 897.09
13700 kPa | 897.29
13725 kPa | 897.47
13750 kPa | 897.68
13775 kPa | 897.85
13800 kPa | 898.05
13825 kPa | 898.26
13850 kPa | 898.41
13875 kPa | 898.62
13900 kPa | 898.8
13925 kPa | 898.97
13950 kPa | 899.2
13975 kPa | 899.38
14000 kPa | 899.55
14025 kPa | 899.76
14050 kPa | 899.94
14075 kPa | 900.17
14100 kPa | 900.34
14125 kPa | 900.51
14150 kPa | 900.7
14175 kPa | 900.95
14200 kPa | 901.13
14225 kPa | 901.31
14250 kPa | 901.48
14275 kPa | 901.66
14300 kPa | 901.83
14325 kPa | 902.05
14350 kPa | 902.18
14375 kPa | 902.38
14400 kPa | 902.56
14425 kPa | 902.77
14450 kPa | 902.92
14475 kPa | 903.13
14500 kPa | 903.28
14525 kPa | 903.44
14550 kPa | 903.67
14575 kPa | 903.82
14600 kPa | 904.05
14625 kPa | 904.2
14650 kPa | 904.42
14675 kPa | 904.58
